# Literature values in patent US20100087454A1, “MUCOSAL BIOADHESIVE SLOW RELEASE CARRIER FOR DELIVERING ACTIVE PRINCIPLES” (priority 2007, published 2010).
# Conditions: after systemic administration orally; relative to 50% inhibitory dose of herpes simplex-1 virus
compound,measurement,value
Nc1nc2c(ncn2COCCO)c(=O)[nH]1 [acyclovir],peak acyclovir concentrations in saliva,at the lower end of the 50% inhibitory dose of herpes simplex-1 virus
